Here are results for eight compounds from patent US8338472B2, “Hexahydrocyclopentyl[F]indazole carboxamides and derivatives thereof as selective glucocorticoid receptor modulators” (Merck Sharp & Dohme Corp., priority 2008, dated 2012).

Experiment [1] concerns the target T1, glucocorticoid receptor (GR) (Homo sapiens, UniProt P04150).
T1 sequence (P04150 1-777): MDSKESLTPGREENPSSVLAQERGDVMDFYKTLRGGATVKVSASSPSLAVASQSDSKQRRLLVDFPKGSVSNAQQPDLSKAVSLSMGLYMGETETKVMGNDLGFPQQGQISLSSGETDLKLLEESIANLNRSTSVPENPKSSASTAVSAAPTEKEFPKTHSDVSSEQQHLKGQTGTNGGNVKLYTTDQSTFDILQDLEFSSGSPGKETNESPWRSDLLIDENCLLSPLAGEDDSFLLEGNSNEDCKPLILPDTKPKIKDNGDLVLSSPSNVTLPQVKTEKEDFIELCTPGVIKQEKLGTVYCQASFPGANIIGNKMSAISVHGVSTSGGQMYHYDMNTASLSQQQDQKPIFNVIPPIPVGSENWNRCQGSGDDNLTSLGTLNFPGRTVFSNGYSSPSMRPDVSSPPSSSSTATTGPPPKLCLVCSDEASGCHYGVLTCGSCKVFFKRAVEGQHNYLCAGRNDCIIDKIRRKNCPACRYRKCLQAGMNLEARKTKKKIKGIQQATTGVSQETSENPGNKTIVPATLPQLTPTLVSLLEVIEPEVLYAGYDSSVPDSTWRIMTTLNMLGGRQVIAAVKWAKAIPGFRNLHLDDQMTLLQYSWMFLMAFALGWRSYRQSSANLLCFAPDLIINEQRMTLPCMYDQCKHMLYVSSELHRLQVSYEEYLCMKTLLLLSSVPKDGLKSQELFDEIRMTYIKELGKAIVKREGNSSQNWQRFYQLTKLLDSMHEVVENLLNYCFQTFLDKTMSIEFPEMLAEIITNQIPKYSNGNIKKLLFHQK
Kind of experiment: Ligand binding assay (GR BIND), 3H-dexamethasone displacement in MDA-MB-453 cell lysate. Particulars: GR BIND Ki.
Procedure: Binding Buffer: TEGM (10 mM Tris-HCl, 1 mM EDTA, 10% glycerol, 1 mM beta-mecaptoethanol, 10 mM Sodium Molybdate, pH 7.2)
50% HAP Slurry: Calbiochem Hydroxylapatite, Fast Flow, in 10 mM Tris, pH 8.0 and 1 mM EDTA.
Wash Buffer: 40 mM Tris, pH7.5, 100 mM KCl, 1 mM EDTA and 1 mM EGTA.
Dexmethasone-methyl-^3H, (DEX*); (Amersham cat# TRK645)
Dexamethasone(DEX) (Sigma, cat# D1756):
The cell pellet is washed twice with TEGM (10 mM Tris-HCl, 1 mM EDTA, 10% glycerol, 1 mM beta-mercaptoethanol, 10 mM Sodium Molybdate, pH 7.2). After the final wash, the cells are resuspended in TEGM at a concentration of 10^7 cells/mL. The cell suspension is snap frozen in liquid nitrogen or ethanol/dry ice bath and transferred to −80° C. freezer on dry ice. Before setting up the binding assay, the frozen samples are left on ice-water to just thaw (˜1 hr). Then the samples are centrifuged at 12,500 g to 20,000 g for 30 min at 4° C. The supernatant is used to set-up assay right away. If using 50 μL of supernatant, the test compound can be prepared in 50 μL of the TEGM buffer.
Procedure for Multiple Compound Screening
1×TEGM buffer is prepared, and the isotope-containing assay mixture is prepared in the following order: EtOH (2% final concentration in reaction), ^3H-DEX (Amersham Biosciences) and 1×TEGM. [e.g. For 100 samples, 200 μL (100×2) of EtOH+4.25 μL of 1:10 ^3H-Dex stock+2300 μL (100×23) 1×TEGM]. The compound is serially diluted, e.g., if starting final conc. is 1 μM, and the compound is in 25 μL of solution, for duplicate samples, 75 μL of 4×1 μM solution is made and 3 μL of 100 μM is added to 72 μL of buffer, and 1:5 serial dilution.
25 μL of ^3H-DEX (6 nM) trace and 25 μL compound solution are first mixed together, followed by addition of 50 μL receptor solution. The reaction is gently mixed, spun briefly at about 200 rpm and incubated at 4° C. overnight. 100 μL of 50% HAP slurry is prepared and added to the incubated reaction which is then vortexed and incubated on ice for 5 to 10 minutes. The reaction mixture is vortexed twice more to resuspend HAP while incubating reaction. The samples in 96-well format are then washed in wash buffer using The FilterMate™ Universal Harvester plate washer (Packard). The washing process transfers HAP pellet containing ligand-bound expressed receptor to Unifilter-96 GF/B filter plate (Packard). The HAP pellet on the filter plate is incubated with 50 μL of MICROSCINT (Packard) scintillint for 30 minutes before being counted on the TopCount microscintillation counter (Packard). IC50s are calculated using DEX as a reference.

Experiment [2] deals with T2, Glucocorticoid Receptor (Homo sapiens, UniProt P04150).
T2 construct: These cells express large amount of the GR and are very responsive to GC treatment; endogenous in cells; host or cells: A549 cells transiently transfected with the MMTV-LUC reporter
T2 sequence (P04150 1-777): T1 sequence (P04150 1-777)
Kind of experiment: Trans-Activation Modulation of Glucocorticoid Receptor (GRAMMER), MMTV-LUC reporter gene in A549 cells. In kind it is cell-based. To be noted: Table 1; for Emax: A549, A549 cells, Emax relative to 300 nM dexamethasone, read-out: Transactivation A549 Cells GRAMMER Emax; for EC50: inflection point, A549 cells, read-out: Transactivation A549 Cells GRAMMER IP. An excerpt:
Trans-Activation Modulation of Glucocorticoid Receptor (GRAMMER)
This assay assesses the ability of test compounds to control transcription from the MMTV-LUC reporter gene in lung adenocarcinoma A549 cells or MDA-MB-453 cells, a human breast cancer cell line that naturally expresses the human GR. The assay measures induction of a modified MMTV LTR/promoter linked to the LUC reporter gene.
The routine transient assay consists of plating 7,000-25,000 cells/well of a white, clear-bottom 96-well plate. Alternatively, 384-well plates can be used at a cell concentration of 10,000/well. The media that the cells are plated in is “exponential growth medium” which consists of phenol red-free RPMI1640 containing 10% FBS, 4 mM L-glutamine, 20 mM HEPES, 10 ug/mL human insulin, and 20 ug/mL gentamicin. Incubator conditions are 37° C. and 5% CO2. The transfection is done in batch mode. The cells are trypsinized and counted to the right cell number in the proper amount of fresh media. It is then gently mixed with the FuGene6/DNA mix and plated onto the 96 or 384-well plate, all the wells receive 100 uL or 40 uL, respectively, of medium+lipid/DNA complex then incubated 37° C. overnight. The transfection cocktail consists of serum-free OptiMEM, FuGene6 reagent and DNA. The manufacturer's (Roche Biochemical) protocol for cocktail setup is as follows: The lipid to DNA ratio is approximately 2.5:1 and the incubation time is 20 min at room temperature. Sixteen to 24 hours after transfection, the cells are treated with dexamethasone to a final concentration of 10 nM as well as the compound of interest, such that final DMSO (vehicle) concentration is equal to or less than 1%. Each plate also contains samples that are treated with 10 nM dexamethasone alone, which is used as the 100% activity control. The cells are exposed to the compounds for 24 hours. After 24 hours, the cells are lysed by a Promega cell culture lysis buffer for approximately 30 min and then the luciferase activity in the extracts is assayed in the 96-well format luminometer. In 384-well format, Steady-Glo (Promega) or Steady-Lite (PerkinElmer) can be used by adding an equal volume of reagent to the media present in each well. Activity induced by 10 nM dexamethasone alone is set at 100% activity. Antagonist activity is calculated by determining the decrease in dexamethasone-induced activity in response to compound treatment relative to samples that were treated with dexamethasone alone. […] This transactivation assay can be performed in an agonist and antagonist mode to identify these different activities.
Activity of test compounds is calculated as the Emax relative to the activity obtained with 300 nM dexamethasone. Activity of test compounds is calculated as the Emax relative to the activity obtained with 300 nM DEX. […] The action of compounds is also tested in an antagonist mode (Anti-GRAMMER) in which the cells are treated with medium containing an agonist such as 10 nM DEX and the ability to agents to inhibit the activation by an agonist is measured.

In experiment [3] the target is T3, human GR (Homo sapiens, UniProt P04150).
T3 construct: U937 cells contain an endogenous glucocorticoid receptor (GR); endogenous in cells; host or cells: U937 cells stably transfected with the TNF-alpha promoter/beta-lactamase reporter
T3 sequence (P04150 1-777): T1 sequence (P04150 1-777)
Kind of experiment: Transrepression Assay (GITAR), TNFα-β-lactamase reporter gene in U937 cells. In kind it is cell-based. To be noted: for GITAR Greater than by GRAMMER % SEP: GITAR Emax minus GRAMMER Emax; for EC50: inflection point, U937 cells, read-out: Transrepression U937 Cells GITAR IP. From the text:
Transrepression Assay (GITAR)
This assay assesses the ability of test compounds to control transcription from the TNFα-β-lactamase reporter gene in U937 cells, a human myelomonocytic leukemia cell line that naturally expresses the human GR. The assay measures compound dependent-repression of the TNFa promoter linked to a reporter gene.
The human U937 cells that had been stablely transfected with the TNF-α promoter driving β-lactamase are used for this assay. U937 cells contain an endogenous glucocorticoid receptor (GR). Cells are maintained in RPMI 1640 Growth medium (Gibco Cat#11875-093) containing 25 mM HEPES, 10% FBS, 2 mM L-Glutamine, 1 mM Sodium pyruvate, 25 μg/ml Gentamicin (Gibco Cat#15710-064), 1:1000 2-Mercaptoethanol (Gibco Cat#21985-023) and 0.8 mg/ml G418 (Gibco Cat#10131-027). The density of the cells in the flask needs to be about 1×10^6−3×10^6/ml at the time of harvest. Usually, the cells are split to 1.2˜1.4×10^5/ml (1:10) 3 days prior to the assay. 50,000 cells/well are plated in 96 well black-walled plates the day of assay. Test compounds are added 10 pt/well, and cells are incubated at 37° C. for 30-45 min. For assaying compounds, first dilute 1:10 in DMSO to make 1 mM, then further dilute 1:100 in medium to make 10× stock prior to adding to the cells. Add 50 ng/ml PMA (Sigma, cat# P8139) 10 μL/well to a final concentration 5 ng/ml, and 1 μg/ml LPS (Sigma, cat# L4130) 10 μL/well to a final concentration 100 ng/ml. Incubate cells at 37° C. overnight for ˜18 hr. PMA is stored frozen as 100 μg/ml stock in DMSO. Dilute 1:10 in DMSO for a working stock of 10 μg/ml and store at −20C. For assaying, dilute the […] working stock 1:200 in medium to make a 10× solution (50 ng/ml). Store frozen LPS at 1 mg/ml in PBS, dilute 1:1000 in medium to make 10× (1 μg/ml) for the assay. Add 6× loading buffer (CCF2−AM) 20 μL/well, and incubate at room temperature for 70-90 min. […] The activity repressed by 100 nM dexamethasone alone is set as 100% activity.

The mark [4] stands for this setting: U-937, U937 cells, activity repressed by 100 nM dexamethasone = 100%, Table 1, read-out: Transrepression U937 Cells GITAR Emax.
[5] abbreviates: U-937, text statement, 100 nM dexamethasone = 100%, read-out: maximal activity in the transrepression assay (GITAR).

Molecules are shown by their SMILES. Where two headings read alike, the source gives them in different places. A value given as a limit tells only on which side of the number the result lay.

A word on the Ki: it is the dissociation constant of the complex between target and ligand, obtained from inhibition or displacement. Read a low Ki as tighter binding. In turn, `C[C@]12Cc3cnn(-c4ccc(F)cc4)c3C=C1CC[C@@H]2C(=O)Nc1ccccc1` (single isomer, unassigned) [reference compound] yielded a Ki in experiment [1] (compounds in the art (WO03/086294)) of 2420 nM.
Consider `CCCN(CCC)C(=O)[C@H]1CCC2=Cc3c(cnn3-c3ccc(F)cc3)C[C@@]21C` [Compound 1, (4αR,5S)-1-(4-Fluorophenyl)-4α-methyl-N,N-dipropyl-1,4,4α,5,6,7-hexahydrocyclopenta[f]indazole-5-carboxamide], for which the values for the Emax in experiment [2], in experiment [3] (setting [4]) and in experiment [3] (setting [5]) were 45.3%, 67.5% and above 5%, respectively. The EC50 was determined as 177 nM in experiment [2] and 328 nM in experiment [3] (Table 1). The “GITAR Greater than by GRAMMER % SEP” value in experiment [3] (Table 1) was 22.2%. Besides, the affinity in experiment [1] (Table 1) corresponds to a Ki of 1.7 nM.
As to `C[C@]12Cc3cnn(-c4ccc(F)cc4)c3C=C1CC[C@@H]2C(=O)NC(Cc1ccccc1)c1ccccc1` (stereo partly drawn) [Compound 2, (4αR,5S)-N-(1,2-diphenylethyl)-1-(4-fluorophenyl)-4α-methyl-1,4,4α,5,6,7-hexahydrocyclopenta[f]indazole-5-carboxamide], the Emax was 3.1% in experiment [2], 27.6% in experiment [3] (setting [4]) and above 5% in experiment [3] (setting [5]). In addition, the results for the EC50 in experiment [2] and in experiment [3] (Table 1) were 1120 nM and 3540 nM, respectively. Also, the “GITAR Greater than by GRAMMER % SEP” value in experiment [3] (Table 1) is 24.5%. Also, the Ki in experiment [1] (Table 1) came out at 12.7 nM.
With `C[C@]12Cc3cnn(-c4ccc(F)cc4)c3C=C1CC[C@@H]2C(=O)NCc1ccc(Cl)cc1Cl` [Compound 3, (4αR,5S)-N-(2,4-dichlorobenzyl)-1-(4-fluorophenyl)-4α-methyl-1,4,4α,5,6,7-hexahydrocyclopenta[f]indazole-5-carboxamide], the Emax is 0.9% in experiment [2], 17% in experiment [3] (setting [4]) and above 5% in experiment [3] (setting [5]). Further, the results for the EC50 in experiment [2] and in experiment [3] (Table 1) were 5590 nM and 5200 nM, respectively. The “GITAR Greater than by GRAMMER % SEP” value in experiment [3] (Table 1) was 16.1%. The same compound yielded a Ki in experiment [1] (Table 1) of 16.2 nM.
For `CCCN(CC)C(=O)[C@H]1CCC2=Cc3c(cnn3-c3ccc(F)cc3)C[C@@]21C` [Compound 4, (4αR,5S)-N-ethyl-1-(4-fluorophenyl)-4α-methyl-N-propyl-1,4,4α,5,6,7-hexahydrocyclopenta[f]indazole-5-carboxamide], the Emax in experiment [2] was 19.2%; in experiment [3] (setting [4]), 21.5%; in experiment [3] (setting [5]), above 5%. Further, the values for the EC50 in experiment [2] and in experiment [3] (Table 1) were 909 nM and 1000 nM, respectively. Besides, the “GITAR Greater than by GRAMMER % SEP” value in experiment [3] (Table 1) is listed as 2.3%. Affinity in experiment [1] (Table 1) was put at a Ki of 2.5 nM.
For `CCCN(CC1CC1)C(=O)[C@H]1CCC2=Cc3c(cnn3-c3ccc(F)cc3)C[C@@]21C` [Compound 5, (4αR,5S)-N-(cyclopropylmethyl)-1-(4-fluorophenyl)-4α-methyl-N-propyl-1,4,4α,5,6,7-hexahydrocyclopenta[f]indazole-5-carboxamide], the figures for the Emax in experiment [2], in experiment [3] (setting [4]) and in experiment [3] (setting [5]) were 35.4%, 59.6% and above 5%, respectively. Moreover, the figures for the EC50 in experiment [2] and in experiment [3] (Table 1) were 358 nM and 674 nM, respectively. Also, in experiment [3] (Table 1), the “GITAR Greater than by GRAMMER % SEP” value came to 24.2%. This compound also gave a Ki in experiment [1] (Table 1) of 0.9 nM.
For `C[C@]12Cc3cnn(-c4ccc(F)cc4)c3C=C1CC[C@@H]2C(=O)Nc1ccccc1` [Compound 6, (4αR,5S)-1-(4-fluorophenyl)-4α-methyl-N-phenyl-1,4,4α,5,6,7-hexahydrocyclopenta[f]indazole-5-carboxamide], the values for the Emax in experiment [2], in experiment [3] (setting [4]) and in experiment [3] (setting [5]) were 1.3%, 12.8% and above 5%, respectively. Further, the EC50 was found to be 133 nM in experiment [2] and 0.9 nM in experiment [3] (Table 1). In addition, the “GITAR Greater than by GRAMMER % SEP” value in experiment [3] (Table 1) was 11.5%. This compound also yielded a Ki in experiment [1] (Table 1) of 19.4 nM.
Regarding `C[C@]12Cc3cnn(-c4ccc(F)cc4)c3C=C1CC[C@@H]2C(=O)N1CCCCC1CCc1ccccc1` (stereo partly drawn) [Compound 18, (4αR,5S)-1-(4-fluorophenyl)-4α-methyl-5-{[2-(2-phenylethyl)piperidin-1-yl]carbonyl}-1,4,4α,5,6,7-hexahydrocyclopenta[f]indazole], the Emax was 3.8% in experiment [2], 10.1% in experiment [3] (setting [4]) and above 5% in experiment [3] (setting [5]). The “GITAR Greater than by GRAMMER % SEP” value in experiment [3] (Table 1) was 6.3%.
